The text below walks through data of paper PMC10108397 (ACS Medicinal Chemistry Letters, 2023).

Where only a bound is given, the exact number is not on record here.

What is called solubility (kinetic) is the concentration staying in solution when a stock, usually in DMSO, is diluted into the medium.

Data set [1] has as its system MDA-MB-231 cells. As to the kind of experiment: MDA-MB-231 cell viability assay. The format is cell-based. To be noted: 48 h, up to 10 μM.
In data set [2] the test system is MDA-MB-231 cells. To be noted: 2–10 μM, 24–72 h, WST-1; cited from earlier work. On the technique in general: Formazan colour is commonly taken as a measure of viable cells.
In data set [3] the test system is 13 multiple myeloma cell lines. To be noted: cited from earlier work.
For the next data set, the system named is phospho-AKT (Ser129). Kind of data set: Western blot analyses of pAKT and AKT in MDA-MB-231 cells. The format is cell-based. To be noted: 24 h exposure. A general note: Immunoblotting shows a protein as a band on a membrane.
The nature of another data set: Kinetic solubility. To be noted: for measured solubility relative to the dose concentration: actual solubility estimated to be higher than Table 1; for solubility kinetic at 24 h: pH 7.4, kinetic solubility, PBS pH 7.4, 24-hour incubation.
Another data set deals with DYRKs and HIPKs. Kind of data set: Enzymatic profiling, 8-member DYRK and HIPK panel. To be noted: 1 μM. The format is biochemical.
A further data set is described as follows: PAMPA. The format is in vitro ADME. To be noted: correlation. (In PAMPA a lipid-coated filter parts donor from acceptor wells.)
In another data set the target is PIP5K1C (Homo sapiens, UniProt O60331). As to the kind of experiment: Enzymatic assay, dose-response. It is filed as biochemical.
In a further data set the test system is CK2α and CK2α′. As to the kind of experiment: CK2 NanoBRET assays.

Chain of PIP5K1C (O60331 whole entry): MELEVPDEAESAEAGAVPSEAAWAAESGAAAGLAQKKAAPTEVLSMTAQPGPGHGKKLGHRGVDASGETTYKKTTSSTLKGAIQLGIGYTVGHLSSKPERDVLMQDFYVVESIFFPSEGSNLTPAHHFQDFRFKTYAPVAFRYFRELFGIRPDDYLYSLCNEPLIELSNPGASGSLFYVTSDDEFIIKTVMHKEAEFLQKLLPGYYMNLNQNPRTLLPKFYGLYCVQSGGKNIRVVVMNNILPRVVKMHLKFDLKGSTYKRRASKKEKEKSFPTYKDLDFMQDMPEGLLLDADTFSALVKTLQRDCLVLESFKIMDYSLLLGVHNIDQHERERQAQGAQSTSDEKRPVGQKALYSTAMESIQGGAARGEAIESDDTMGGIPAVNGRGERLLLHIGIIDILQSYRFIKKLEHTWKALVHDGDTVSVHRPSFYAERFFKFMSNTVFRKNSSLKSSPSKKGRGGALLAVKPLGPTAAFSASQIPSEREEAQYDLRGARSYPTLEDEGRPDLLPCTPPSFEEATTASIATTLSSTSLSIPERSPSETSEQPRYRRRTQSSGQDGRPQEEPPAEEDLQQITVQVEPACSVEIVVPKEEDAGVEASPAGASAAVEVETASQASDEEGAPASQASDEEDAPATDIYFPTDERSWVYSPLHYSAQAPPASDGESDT

For the molecule `O=C(O)c1ccc2c(c1)nc(Nc1cccc(Cl)c1)c1ccncc12` [CX-4945, 5-(3-chlorophenylamino)benzo[c][2,6]naphthyridine-8-carboxylic acid, reference compound], the cytotoxicity entry in the data set with MDA-MB-231 cells [1] is “did not exhibit cytotoxicity”. Besides, the cell growth result in the data set with MDA-MB-231 cells [2] is recorded as “cell growth is inhibited”. Further, the antiproliferative activity entry in [3] is “low micromolar antiproliferative activity”. Moreover, in the data set with phospho-AKT (Ser129), the AKT phosphorylation result is “dose-dependent inhibition of AKT phosphorylation” and the “total AKT expression” value is recorded as “no impact on total AKT expression”.
Consider `N#Cc1cccc(Nc2nc3cc(C(=O)O)ccc3c3cncnc23)c1` [CX-5011, reference compound], for which the cytotoxicity result in the data set with MDA-MB-231 cells [1] is “did not exhibit cytotoxicity”.
For `O=C(O)c1ccc2c(c1)nc(NCc1ccccc1)c1ncncc12` [Compound 2], in the data set “Kinetic solubility”, the “measured solubility relative to the dose concentration” value was “greater than 75%” and the kinetic solubility at 24 h is > 100 µM. Moreover, the cytotoxicity result in the data set with MDA-MB-231 cells [1] was “neither compound 2 nor SGC-CK2-1 exhibited significant cytotoxicity”. In addition, in the data set on DYRKs and HIPKs, the “activity in DYRK and HIPK enzymatic panel” value was “lacked activity against DYRKs and HIPKs”. In addition, in the data set “PAMPA”, the “human fraction absorbed (%FA) correlated with PAMPA Pe” value was “greater than 80%”. Further, in the data set on phospho-AKT (Ser129), the AKT phosphorylation result is given as “dose-dependent inhibition of AKT phosphorylation” and the “total AKT expression” value is listed as “no impact on total AKT expression”.
Turning to `O=C(O)c1ccc2c(c1)nc(NCc1ccccc1)c1ncccc12` [Compound 7], in the data set with MDA-MB-231 cells [1], the cytotoxicity result was “did not exhibit cytotoxicity”. Besides, at PIP5K1C, the “PIP5K1C inhibition, enzymatic follow-up” value is “did not result in PIP5K1C inhibition”. Also, the “binding in CK2α and CK2α′ NanoBRET assays” value in the data set on CK2α and CK2α′ is on record as “not bind either kinase at concentrations up to 10 μM”. Moreover, the “human fraction absorbed (%FA) correlated with PAMPA Pe” value in “PAMPA” is “greater than 80%”.
For `COc1cccc(CCNc2nc3cc(C(=O)O)ccc3c3cncnc23)c1` [Compound 8], in “Kinetic solubility”, the “measured solubility relative to the dose concentration” value is “greater than 75%” and the solubility (kinetic) at 24 h is > 100 µM. In addition, in the data set on DYRKs and HIPKs, the “activity in DYRK and HIPK enzymatic panel” value is “lacked activity against DYRKs and HIPKs”.
Consider `O=C(O)c1ccc2c(c1)nc(NCCc1cccc(Cl)c1)c1ncncc12` [Compound 9], for which the kinetic solubility at 24 h in “Kinetic solubility” was > 100 µM. In addition, the “activity in DYRK and HIPK enzymatic panel” value in the data set with DYRKs and HIPKs was “lacked activity against DYRKs and HIPKs”.
As for `O=C(O)c1ccc2c(c1)nc(NCCc1cccc(F)c1)c1ncncc12` [Compound 10], in “Kinetic solubility”, the solubility (kinetic) at 24 h was > 100 µM. Further, the “activity in DYRK and HIPK enzymatic panel” value with DYRKs and HIPKs is recorded as “potent inhibition of just one kinase”.
As to `O=C(O)c1ccc2c(c1)nc(Nc1ccc3ccccc3c1)c1ncncc12` [Compound 11], the “observation during solubility assessment” value in “Kinetic solubility” is “insoluble residue”.
As for `O=C(O)c1ccc2c(c1)nc(Nc1ccc(Cl)cc1)c1ncncc12` [Compound 12], the “measured solubility relative to the dose concentration” value in “Kinetic solubility” is reported as “greater than 75%”.
In the case of `O=C(O)c1ccc2c(c1)nc(Nc1cccc(F)c1)c1ncncc12` [Compound 13], in “Kinetic solubility”, the “measured solubility relative to the dose concentration” value was “greater than 75%”.
On to `O=C(O)c1ccc2c(c1)nc(Nc1ccccc1Cl)c1ncncc12` [Compound 15], for which the “observation during solubility assessment” value in the data set “Kinetic solubility” is on record as “insoluble residue”.
Consider `O=C(O)c1ccc2c(c1)nc(Nc1ccccc1)c1ncncc12` [Compound 16], for which the “measured solubility relative to the dose concentration” value in the data set “Kinetic solubility” was “greater than 75%”.
As for `O=C(O)c1ccc2c(c1)nc(NCCc1ccccc1)c1ncncc12` [Compound 17], in “Kinetic solubility”, the solubility (kinetic) at 24 h was > 100 µM. Further, in the data set with DYRKs and HIPKs, the “activity in DYRK and HIPK enzymatic panel” value is recorded as “potent inhibition of just one kinase”.
In the case of `O=C(O)c1ccc2c(c1)nc(NCCc1cccc(Cl)c1)c1ccncc12` [Compound 18], in the data set “Kinetic solubility”, the “measured solubility relative to the dose concentration” value is recorded as “greater than 75%” and the solubility (kinetic) at 24 h is > 100 µM. For the same molecule, in the data set on DYRKs and HIPKs, the “activity in DYRK and HIPK enzymatic panel” value is “potent inhibition of just one kinase”.
For `O=C(O)c1ccc2c(c1)nc(NCc1ccccc1)c1ccncc12` [Compound 21], in the data set “Kinetic solubility”, the “measured solubility relative to the dose concentration” value is reported as “greater than 75%” and the kinetic solubility at 24 h is > 100 µM. Besides, in the data set with DYRKs and HIPKs, the “activity in DYRK and HIPK enzymatic panel” value was “lacked activity against DYRKs and HIPKs”.
With `O=C(O)c1ccc2c(c1)nc(NCCc1cccc(F)c1)c1ccncc12` [Compound 22], in “Kinetic solubility”, the “measured solubility relative to the dose concentration” value is reported as “greater than 75%” and the kinetic solubility at 24 h was > 100 µM.
`O=C(O)c1ccc2c(c1)nc(Nc1cccc(F)c1)c1ccncc12` [Compound 23]: the “measured solubility relative to the dose concentration” value in “Kinetic solubility” was “greater than 75%”.
`COc1cccc(CCNc2nc3cc(C(=O)O)ccc3c3cnccc23)c1` [Compound 24]: in “Kinetic solubility”, the “measured solubility relative to the dose concentration” value was “greater than 75%” and the solubility (kinetic) at 24 h is > 100 µM. Also, in the data set on DYRKs and HIPKs, the “activity in DYRK and HIPK enzymatic panel” value is “potent inhibition of just one kinase”.
With `O=C(O)c1ccc2c(c1)nc(Nc1ccccc1)c1ccncc12` [Compound 25], the “measured solubility relative to the dose concentration” value in “Kinetic solubility” is “greater than 75%”.
With `O=C(O)c1ccc2c(c1)nc(NCCc1ccccc1)c1ccncc12` [Compound 27, 5-(phenethylamino)benzo[c][2,6]naphthyridine-8-carboxylic acid], in “Kinetic solubility”, the “measured solubility relative to the dose concentration” value is “greater than 75%” and the solubility (kinetic) at 24 h was > 100 µM.
For `COc1cccc(Nc2nc3cc(C(=O)O)ccc3c3cnccc23)c1` [Compound 28, 5-((3-methoxyphenyl)amino)benzo[c][2,6]naphthyridine-8-carboxylic acid], the “measured solubility relative to the dose concentration” value in “Kinetic solubility” is “greater than 75%”.
